Source: US10004253B1, “Method for increasing the health condition of crustaceans in aquaculture, survival rate and pigmentation” (priority 2017, dated 2018)

Columns and labels:
white shrimp L. vannamei = assay: Different sources and doses of carotenoids in balanced feed, 60 day treatment, Example 6; type: in vivo; details: 75 ppm in feed
Excerpt: 6. —Effects of different sources and doses of carotenoids in the balanced feed, growout, survival, and deposition of pigments in white shrimp L. vannamei. The following is a review of the results obtained regarding the dosing of Lutein/Zeaxanthin Long Chain Diesters in the feed, as compared to feed that contained synthetic Astaxanthin (Carophyll Pink). The average survival and final weight results of the experimental work with shrimp L. vannamei results, obtained after a 60 day treatment, are shown in Table V: […]

P. monodon shrimp = assay: Total pigment and Astaxanthin enantiomers deposited, commercial ponds, Example 7; type: in vivo; details: feed with 60 ppm, sampled at three grams weight, lyophilized
Method: The concentration of total pigment in crustacean specimens extract was carried out by UV/VIS spectrophotometric methods measurement absorbance at 470 nm (A 1%=2100 in Hexane).
The Astaxanthin enantiometers deposited by the crustaceans specimens, or from its different organs, were quantified by HPLC after derivatization into the corresponding dicamphanates (Vecchi and Muller 1979).
7. —Comparison of the different Astaxanthin enantiomers deposited by P. monodon that were given the following three different diets: commercial feed as control; commercial feed containing 120 ppm of Lutein or Zeaxanthin Long Chain Diesters Concentrate; and commercial feed that contained 60 ppm of synthetic Astaxanthin (Carophyll Pink). […]
At three grams weight, the ponds were sampled, the specimens were lyophillized and the dehydrated samples were ground and analyzed.
The concentration of total pigment in the crustacean specimens extract was carried out by UV/Vis spectrophotometric methods measurement absorbance at 470 nm (A 1%=2100 in hexane).
The analysis of Astaxanthin R/S enantiomers deposited by the crustacean specimens, were quantified by HPLC after derivatization into the corresponding dicamphanates (Vecchi and Muller 1979), in order to differentiate the Astaxanthin enantiomers.

CC1=C(/C=C/C(C)=C/C=C/C(C)=C/C=C/C=C(C)/C=C/C=C(C)/C=C/C2=C(C)C(=O)[C@@H](O)CC2(C)C)C(C)(C)C[C@H](O)C1=O [ROCHE Astaxanthin, Astaxanthin]
FINAL WEIGHT grs (white shrimp L. vannamei): 7.77 grs
SURVIVAL % (white shrimp L. vannamei): 63.33%
ASTAX. IN HEAD (hepathopanchreas) (white shrimp L. vannamei; HPLC): 29.2 micrograms of Astaxanthin per gram of tissue
ASTAX. IN MUSCLE (white shrimp L. vannamei; HPLC): 11.4 micrograms of Astaxanthin per gram of tissue
ASTAX. IN SHELL (carapace) (white shrimp L. vannamei; HPLC): 75.1 micrograms of Astaxanthin per gram of tissue
Concentration of total pigment in specimens extract (UV/Vis 470 nm) (P. monodon shrimp): 152.5 ppm
